pKd: −log10 of the molar value. Starred links: 1 amine or outer side, 2 acyl side, 3 side chain; linkers in the order of their positions; H or OH if unused. Positions of bridges follow the written chain, without caps; N, C: chain ends. Non-standard residues stand in square brackets, D forms with d. Residues, ends and D or L forms follow the SMILES beside them. Groups on a side chain read outwards from the residue. *: point of attachment. Ala(piperidin-4-yl) = O=C([C@H](CC1CCN([*:3])CC1)N[*:1])[*:2]; Phe(3-CH2NH2) = O=C([C@H](Cc1cccc(CN[*:3])c1)N[*:1])[*:2]; DOTA = O=C(O)CN1CCN(CC(=O)O)CCN(CC(=O)*)CCN(CC(=O)O)CC1; Trp(4-Cl) = N[C@@H](Cc1c[nH]c2cccc(Cl)c12)C(=O)O; Phe(4-COOH) = N[C@@H](Cc1ccc(C(=O)O)cc1)C(=O)O; Trp(5-F) = N[C@@H](Cc1c[nH]c2ccc(F)cc12)C(=O)O; Phe(3-Cl) = N[C@@H](Cc1cccc(Cl)c1)C(=O)O; γGlu = O=C(O)[C@H](CCC(=O)[*:2])N[*:1]; 1Nal = N[C@@H](Cc1cccc2ccccc12)C(=O)O; Ala(4-THP) = N[C@@H](CC1CCOCC1)C(=O)O; Val(3-OH) = CC(C)(O)[C@H](N)C(=O)O; mTyr = N[C@@H](Cc1cccc(O)c1)C(=O)O; 4Pal = N[C@@H](Cc1ccncc1)C(=O)O; PEG4 = NCCOCCOCCOCCOCCC(=O)O; Tle = CC(C)(C)[C@H](N)C(=O)O; hLeu = CC(C)CC[C@H](N)C(=O)O; NMeS = CN[C@@H](CO)C(=O)O; Nle = CCCC[C@H](N)C(=O)O
Target: T1, human 4lg B7-H3 (Homo sapiens, UniProt Q5ZPR3)
T1 sequence (Q5ZPR3 29-534): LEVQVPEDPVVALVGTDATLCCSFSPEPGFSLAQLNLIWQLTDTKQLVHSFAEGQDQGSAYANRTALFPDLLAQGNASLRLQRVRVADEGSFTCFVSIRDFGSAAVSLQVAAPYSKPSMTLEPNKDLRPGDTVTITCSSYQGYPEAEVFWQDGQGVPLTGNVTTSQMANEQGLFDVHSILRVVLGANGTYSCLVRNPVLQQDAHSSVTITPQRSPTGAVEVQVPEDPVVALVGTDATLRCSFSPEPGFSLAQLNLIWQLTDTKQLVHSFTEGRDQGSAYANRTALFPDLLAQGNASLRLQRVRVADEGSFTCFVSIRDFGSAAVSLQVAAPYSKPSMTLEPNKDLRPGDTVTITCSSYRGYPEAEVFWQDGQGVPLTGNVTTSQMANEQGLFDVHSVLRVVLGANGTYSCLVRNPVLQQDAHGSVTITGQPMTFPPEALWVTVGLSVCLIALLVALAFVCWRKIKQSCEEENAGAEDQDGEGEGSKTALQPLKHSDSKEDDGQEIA
Assay: Affinity determination by surface plasmon resonance (SPR) to 4Ig B7-H3
Settings: SPR KD—25° C., 4Ig B7-H3; 25° C. flow cell temperature

Row | pKd | Structure (SMILES)
1 | 7.00 to 8.00 | CC(=O)N[C@@H](CCC(C)C)C(=O)N[C@@H](Cc1ccc(O)cc1)C(=O)N[C@H]1CSSC[C@@H](C(=O)N[C@@H](Cc2cccc3ccccc23)C(=O)N[C@@H](Cc2ccccc2)C(=O)N(C)[C@@H](CO)C(=O)N[C@H](CCCCNC(=O)CN2CCN(CC(=O)O)CCN(CC(=O)O)CCN(CC(=O)O)CC2)C(N)=O)NC(=O)[C@H](CC2CCOCC2)NC(=O)[C@H](C(C)C)NC(=O)[C@H](CC(=O)O)NC(=O)[C@H](Cc2ccncc2)NC(=O)[C@H](CCCCN)NC(=O)CNC(=O)[C@H](C(C)(C)C)NC1=O [compound 223, Ac-hLeu-Y-C-Tbg-G-K-4PyA-D-V-ThpA-C-1Nal-F-NMeSer-dLys(DOTA)-CONH2] (Ac-[hLeu]YC[Tle]GK[4Pal]DV[Ala(4-THP)]C[1Nal]F[NMeS][dK](DOTA)-NH2; disulfide 3-11)
2 | > 9.00 | CC(=O)N[C@@H](CCC(C)C)C(=O)N[C@@H](Cc1ccc(O)cc1)C(=O)N[C@H]1CSSC[C@@H](C(=O)N[C@@H](Cc2c[nH]c3ccccc23)C(=O)N[C@@H](Cc2ccccc2)C(=O)N[C@H](C(=O)N[C@H](CCCCNC(=O)CN2CCN(CC(=O)O)CCN(CC(=O)O)CCN(CC(=O)O)CC2)C(N)=O)[C@@H](C)O)NC(=O)[C@H](Cc2ccc(O)cc2)NC(=O)[C@H](C(C)C)NC(=O)[C@H](CC(=O)O)NC(=O)[C@H](Cc2ccc(C(=O)O)cc2)NC(=O)[C@H](CCCCN)NC(=O)CNC(=O)[C@H](C(C)(C)C)NC1=O [compound 139, Ac-hLeu-Y-C-Tbg-G-K-4COOHPhe-D-V-Y-C-W-F-Thr-dLys(DOTA)-CONH2] (Ac-[hLeu]YC[Tle]GK[Phe(4-COOH)]DVYCWFT[dK](DOTA)-NH2; disulfide 3-11)
3 | 7.00 to 8.00 | CCCC[C@H](NC(C)=O)C(=O)N[C@@H](Cc1ccc(O)cc1)C(=O)N[C@H]1CSSC[C@@H](C(=O)N[C@@H](Cc2c[nH]c3ccccc23)C(=O)N[C@@H](Cc2ccccc2)C(=O)N[C@@H](CC2CCNCC2)C(=O)N[C@H](CCCCNC(=O)CN2CCN(CC(=O)O)CCN(CC(=O)O)CCN(CC(=O)O)CC2)C(N)=O)NC(=O)[C@H](Cc2ccc(O)cc2)NC(=O)[C@H](C(C)C)NC(=O)[C@H](CC(=O)O)NC(=O)[C@H](Cc2ccc(O)cc2)NC(=O)[C@H](CCCCN)NC(=O)CNC(=O)[C@H](C(C)C)NC1=O [compound 89, Ac-Nle-Y-C-V-G-K-Y-D-V-Y-C-W-F-4PipAla-dLys(DOTA)-CONH2] (Ac-[Nle]YCVGKYDVYCWF[Ala(piperidin-4-yl)][dK](DOTA)-NH2; disulfide 3-11)
4 | 8.00 to 9.00 | CC(=O)N[C@@H](CCC(C)C)C(=O)N[C@@H](Cc1ccc(O)cc1)C(=O)N[C@H]1CSSC[C@@H](C(=O)N[C@@H](Cc2cccc3ccccc23)C(=O)N[C@@H](Cc2ccccc2)C(=O)N2CCC[C@H]2C(N)=O)NC(=O)[C@H](Cc2ccc(O)cc2)NC(=O)[C@H](C(C)C)NC(=O)[C@H](CC(=O)O)NC(=O)[C@H](Cc2cccc(CNC(=O)CC[C@H](NC(=O)CC[C@H](NC(=O)CC[C@H](NC(=O)CN3CCN(CC(=O)O)CCN(CC(=O)O)CCN(CC(=O)O)CC3)C(=O)O)C(=O)O)C(=O)O)c2)NC(=O)[C@H](CCCCN)NC(=O)CNC(=O)[C@H](C(C)(C)C)NC1=O [compound 258, Ac-hLeu-Y-C-Tbg-G-K-MAF(gE-gE-gE-DOTA)-D-V-Y-C-1Nal-F-Pro-CONH2] (Ac-[hLeu]YC[Tle]GK[Phe(3-CH2NH2)]([γGlu-γGlu-γGlu-DOTA])DVYC[1Nal]FP-NH2; disulfide 3-11)

Same assay, conditions: SPR KD—37° C., 4Ig B7-H3; 37° C. flow cell temperature

Row | pKd | Structure (SMILES)
5 | 8.00 to 9.00 | CC(=O)N[C@@H](CCC(C)C)C(=O)N[C@@H](Cc1ccc(O)cc1)C(=O)N[C@H]1CSSC[C@@H](C(=O)N[C@@H](Cc2c[nH]c3ccc(F)cc23)C(=O)N[C@@H](Cc2cccc(O)c2)C(=O)N[C@H](C(=O)N[C@H](CCCCNC(=O)CN2CCN(CC(=O)O)CCN(CC(=O)O)CCN(CC(=O)O)CC2)C(=O)O)C(C)(C)O)NC(=O)[C@H](Cc2ccc(O)cc2)NC(=O)[C@H](C(C)C)NC(=O)[C@H](CC(=O)O)NC(=O)[C@H](CC2CCOCC2)NC(=O)[C@H](CC2CCNCC2)NC(=O)CNC(=O)[C@H](C(C)(C)C)NC1=O [compound 431, Ac-hLeu-Y-C-Tbg-G-PipAla-ThpA-D-V-Y-C-5FW-3OHPhe-hydroxyVal-dLys(DOTA)-COOH] (Ac-[hLeu]YC[Tle]G[Ala(piperidin-4-yl)][Ala(4-THP)]DVYC[Trp(5-F)][mTyr][Val(3-OH)][dK](DOTA)-OH; disulfide 3-11)
6 | > 9.00 | CC(=O)N[C@@H](CCC(C)C)C(=O)N[C@@H](Cc1ccc(O)cc1)C(=O)N[C@H]1CSSC[C@@H](C(=O)N[C@@H](Cc2c[nH]c3ccc(F)cc23)C(=O)N[C@@H](Cc2ccccc2)C(=O)N[C@H](C(=O)N[C@H](CO)C(=O)O)C(C)(C)O)NC(=O)[C@H](Cc2ccc(O)cc2)NC(=O)[C@H](C(C)C)NC(=O)[C@H](CC(=O)O)NC(=O)[C@H](CC2CCN(C(=O)CCOCCOCCOCCOCCNC(=O)CN3CCN(CC(=O)O)CCN(CC(=O)O)CCN(CC(=O)O)CC3)CC2)NC(=O)[C@H](CC2CCOCC2)NC(=O)CNC(=O)[C@H](C(C)(C)C)NC1=O [compound 484, Ac-hLeu-Y-C-Tbg-G-ThpA-Pip(PEG4-DOTA)Ala-D-V-Y-C-5FW-F-hydroxyVal-dSer-COOH] (Ac-[hLeu]YC[Tle]G[Ala(4-THP)][Ala(piperidin-4-yl)]([PEG4-DOTA])DVYC[Trp(5-F)]F[Val(3-OH)][dS]-OH; disulfide 3-11)
7 | > 9.00 | CC(=O)N[C@@H](CCC(C)C)C(=O)N[C@@H](Cc1ccc(O)cc1)C(=O)N[C@H]1CSSC[C@@H](C(=O)N[C@@H](Cc2c[nH]c3ccc(F)cc23)C(=O)N[C@@H](Cc2cccc(Cl)c2)C(=O)N[C@H](C(=O)N[C@H](CCCCNC(=O)CN2CCN(CC(=O)O)CCN(CC(=O)O)CCN(CC(=O)O)CC2)C(=O)O)C(C)(C)O)NC(=O)[C@H](Cc2ccc(O)cc2)NC(=O)[C@H](C(C)C)NC(=O)[C@H](CC(=O)O)NC(=O)[C@H](CC2CCOCC2)NC(=O)[C@H](CC2CCNCC2)NC(=O)CNC(=O)[C@H](C(C)(C)C)NC1=O [compound 430, Ac-hLeu-Y-C-Tbg-G-PipAla-ThpA-D-V-Y-C-5FW-3CIPhe-hydroxyVal-dLys(DOTA)-COOH] (Ac-[hLeu]YC[Tle]G[Ala(piperidin-4-yl)][Ala(4-THP)]DVYC[Trp(5-F)][Phe(3-Cl)][Val(3-OH)][dK](DOTA)-OH; disulfide 3-11)
8 | 8.00 to 9.00 | CC(=O)N[C@@H](CCC(C)C)C(=O)N[C@@H](Cc1ccc(O)cc1)C(=O)N[C@H]1CSSC[C@@H](C(=O)N[C@@H](Cc2c[nH]c3cccc(Cl)c23)C(=O)N[C@@H](Cc2ccccc2)C(=O)N[C@H](C(=O)N[C@H](CCCCNC(=O)CN2CCN(CC(=O)O)CCN(CC(=O)O)CCN(CC(=O)O)CC2)C(=O)O)C(C)(C)O)NC(=O)[C@H](Cc2ccc(O)cc2)NC(=O)[C@H](C(C)C)NC(=O)[C@H](CC(=O)O)NC(=O)[C@H](CC2CCOCC2)NC(=O)[C@H](CC2CCNCC2)NC(=O)CNC(=O)[C@H](C(C)(C)C)NC1=O [compound 472, Ac-hLeu-Y-C-Tbg-G-PipAla-ThpA-D-V-Y-C-4ClW-F-hydroxyVal-dLys(DOTA)-COOH] (Ac-[hLeu]YC[Tle]G[Ala(piperidin-4-yl)][Ala(4-THP)]DVYC[Trp(4-Cl)]F[Val(3-OH)][dK](DOTA)-OH; disulfide 3-11)
